# Where two headings read alike, the source gives them in different places.
# How the values were obtained:
# Male CF1 mice = assay: Mouse antiphenylquinone writhing (PQW) test; assay type: in vivo; parameters: Mouse PQW ED50 (mg/kg): unit not given here; conditions: for ED50: Mus musculus, 0.5 h, Table 3, phenylquinone 1.25 mg/kg i.p., observation beginning 30 min after injection of test compound; for Mouse PQW ED50 (mg/kg): Table 4, 3° carbinols within the scope of U.S. 4,485,109, head prints neither endpoint nor unit
# Procedure: The anti-pheylquinone writhing (PQW) test modified from the methods of Siegmund et al. (Proc. Soc. Exp. Biol. Med. 95: 729-731, 1957) and Blumberg et al. (Proc. Exp. Biol. Med. 118: 763-767, 1965) was used to assess analgesia in mice. Male CF1 mice (Charles River Breeding Laboratories, Wilmington, MA), fasted for 16-22 h and weighing 18-23 g, were injected with randomized and coded doses of test compounds, then challenged with 1.25 mg/kg i.p. phenyl-p-benzoquinone (phenylquinone) 5 min prior to the specified observation time. The phenylquinone solution (0.1 mg/ml in 5% aqueous ethanol) was prepared daily and stored in foil-wrapped amber bottles to limit degradation. Mice were observed 10 min for the presence or absence of the characteristic abdominal constriction and stretching response beginning 30 min after injection of the test compound. Analgetic activity was calculated as the percentage of mice failing to respond to the phenylquinone challenge dose. […] Median effective doses (ED50's) and 95% confidence limits were determined numerically by the methods of Thompson (Bacteriological Rev. 11: 115-145, 1947), and Litchfield and Wilcoxon (J. Pharmacol. Exp. Ther. 96: 99.113, 1949).
# The data shown in Table show the PQW ED₅₀ values for the compounds of the aforesaid examples.
# Table 4 illustrates that the 3° carbinols within the scope of U.S. 4,485,109 have utility as analgesic agents.
# [1] = literature statement (A. L. Morrison et al., J.Chem. Soc., 1467, 1950); cited from earlier work
# [2] = po, p.o., read-out: Mouse PQW ED₅₀ (Mg/Kg) P.O
# [3] = sc, s.c., read-out: Mouse PQW ED₅₀ (Mg/Kg) S.C
Compound,ED50 (Male CF1 mice; [2]) [mg/kg],ED50 (Male CF1 mice; [3]) [mg/kg],Mouse PQW ED50 (mg/kg) (Male CF1 mice; p.o.),Mouse PQW ED50 (mg/kg) (Male CF1 mice; s.c.),analgesic activity compared with the parent ketones [1]
"CC(=O)OC(C)C1(c2cccc(Cl)c2)CCN(C)CC1 (stereo not drawn) [Example 66, 4-(3'-Chlorophenyl)-α,1-dimethyl-4-piperidinemethanol-Acetate]",19,13,–,–,–
CC(O)C1(c2cccc(F)c2)CCN(C)CC1 (stereo not shown) [Example 5],> 81,24,–,–,–
"CC(O)C1(c2cccs2)CCN(C)CC1 (stereo not drawn) [Example 26, 4-(2-Thienyl)-α,1-dimethylpiperidinemethanol]",19,13,–,–,–
Cc1cccc(C2(C(C)O)CCN(C)CC2)c1 (stereo not shown) [Example 13],47,4.7,–,–,–
CN1CCC(c2cccc(C(F)(F)F)c2)(C2(O)CCCC2)CC1 [W],–,–,12.0,16.0,–
CCC(O)C1(c2cccc(Cl)c2)CCN(C)CC1 (stereo not shown) [Example 35],30,16,–,–,–
CCCCC(O)C1(c2cccc(Cl)c2)CCN(C)CC1 (stereo not shown) [Example 37],> 81,48,–,–,–
CCC(C)(O)C1(c2cccc(C(F)(F)F)c2)CCN(C)CC1 (stereo not shown) [V],–,–,23.0,–,–
"C=CCN1CCC(c2cccc(Cl)c2)(C(C)(C)O)CC1 [Example 42, 1-allyl,4-(3'-chlorophenyl)-α,α dimethyl-4-piperidinemethanol]",54,27,–,–,–
"CC(O)C1(c2cccc(Br)c2)CCN(C)CC1 (stereo not drawn) [Example 10, 4-(3'-Bromophenyl)-α,1-dimethylpiperidinemethanol]",16,6.5,–,–,–
"CCN1CCC(c2cccc(Cl)c2)(C(C)O)CC1 (stereo not drawn) [Example 2, 4-(3'-Chlorophenyl)-1-ethyl-α-methyl-4-piperidinemethanol]",> 81,62,–,–,–
CCCC(O)C1(c2cccc(Cl)c2)CCN(C)CC1 (stereo not shown) [Example 36],> 81,67,–,–,–
CC(O)C1(c2ccc(F)c(F)c2)CCN(C)CC1 (stereo not shown) [Example 7],> 81,38,–,–,–
"CCC(O)C1(c2ccccc2)CCN(C)CC1 (stereo not shown) [4-phenyl-1-methyl-4-(1-hydroxypropyl)piperidine, reference compound]",–,–,–,–,much less active as analgesics than the parent ketones
COc1cccc(C2(C3(O)CCC3)CCN(C)CC2)c1 [EE],–,–,>54.0,22.0,–
CN1CCC(c2cccc(F)c2)(C(C)(C)O)CC1 [X],–,–,>81.0,10.0,–
"CN1CCC(c2cccc(Cl)c2)(C(C)(C)O)CC1 [Example 1a, 4-(3'-Chlorophenyl)-α,α,1-trimethyl-4-piperidinemethanol]",10,16.1,–,–,–
"CC(O)C1(c2ccsc2)CCN(C)CC1 (stereo not drawn) [Example 27, 4-(3-Thienyl)-α,1-dimethylpiperidinemethanol]",16,13,–,–,–
CC(O)C1(c2ccc(Cl)cc2)CCN(C)CC1 (stereo not shown) [Example 8],> 81,30,–,–,–
CSc1ccc(C2(C(C)(C)O)CCN(C)CC2)cc1 [II],–,–,59.0,–,–
COc1cccc(C2(C3(O)CCCCC3)CCN(C)CC2)c1 [GG],–,–,<108.0,–,–
CCC(O)(CC)C1(c2cccc(OC)c2)CCN(C)CC1 [DD],–,–,12.0,–,–
CCCN1CCC(c2cccc(Cl)c2)(C(C)O)CC1 (stereo not shown) [Example 34],> 81,38,–,–,–
CC1CCC(O)(C2(c3cccc(C(F)(F)F)c3)CCN(C)CC2)C1 (stereo not shown) [Y],–,–,25.0,–,–
CCC(C)(O)C1(c2cccc(OC)c2)CCN(C)CC1 (stereo not shown) [CC],–,–,68.0,23.0,–
CC(O)C1(c2cccc(C(F)(F)F)c2)CCN(C)CC1 (stereo not shown) [Example 15],30,19,–,–,–
